Experimental findings from US20240400555A1 (Initial Therapeutics, Inc., priority 2023, published 2024) are described below.

Each structure is given as a SMILES string. Bounds are passed on as bounds.

In general, IC50 refers to the concentration needed to halve the response being measured.

The subject of this assay is MV-4-11 cells. Nature of the assay: Cell Viability Assay in MV-4-11 Cells. The format is cell-based. The settings on record: Homo sapiens, MV4-11, 72 h, MV-4-11 cells, 72 h, Cell-Titer Glo; read-out: IC50. The method in brief:
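Luminescent ATP read-out (CellTiter-Glo) after 72 h compound treatment of MV-4-11 leukaemia cells (7,000 per well, IMDM plus 10% FBS). Values expressed relative to DMSO control and derived by four-parameter non-linear regression.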
For the compound `Cc1cccc2ccnc(N(C(=O)c3ccc(-c4nn(C)nc4Br)cc3F)[C@@H]3CCCNC3)c12` [Example 390, 4-(5-bromo-2-methyl-triazol-4-yl)-2-fluoro-N-(8-methyl-1-isoquinolyl)-N-[(3R)-3-piperidyl] benzamide], the IC50 came to 240 nM.
The figure for `COCCc1nnc(-c2ccc(C(=O)N(c3nccc4scc(C)c34)[C@@H]3CCCNC3)c(F)c2)s1` [Example 634, (R)-2-fluoro-4-(5-(2-methoxyethyl)-1,3,4-thiadiazol-2-yl)-N-(3-methylthieno[3,2-c]pyridin-4-yl)-N-(piperidin-3-yl)benzamide] is 140 nM.
For `Cn1cc(-c2ccc(C(=O)N(c3nccc4cc(/C=C/C(=O)O)ccc34)[C@@H]3CCCNC3)c(F)c2)nn1` [Example 494, (R,E)-3-(1-(2-fluoro-4-(1-methyl-1H-1,2,3-triazol-4-yl)-N-(piperidin-3-yl)benzamido)isoquinolin-6-yl)acrylic acid] the value was over 10000 nM; for `C=C(C)c1ccnc(N(C(=O)c2ccc(-c3cn(C)nn3)cc2F)[C@@H]2CCCNC2)c1` [Example 887, 2-fluoro-N-(4-isopropenyl-2-pyridyl)-4-(1-methyltriazol-4-yl)-N-[(3R)-3-piperidyl]benzamide], over 6300 nM.
The figure for `O=C(c1ccc(-c2cnn3cccnc23)cc1)N(c1nccc2ccccc12)[C@@H]1CCCNC1` [Example 302, (R)—N-(isoquinolin-1-yl)-N-(piperidin-3-yl)-4-(pyrazolo[1,5-a]pyrimidin-3-yl)benzamide] is 480 nM; for `COCC1CCN(c2ccnc(Nc3ccc(C(=O)N(c4nccc5cccc(C)c45)[C@@H]4CCCNC4)c(F)c3)n2)CC1` [Example 964, (R)-2-fluoro-4-((4-(4-(methoxymethyl)piperidin-1-yl)pyrimidin-2-yl)amino)-N-(8-methylisoquinolin-1-yl)-N-(piperidin-3-yl)benzamide] it is 64 nM.
Turning to `O=C(c1ccc(-n2nnc3cccnc32)cc1F)N(c1nccc2sc(-c3cccnc3)cc12)[C@@H]1CCCNC1` [Example 364, 2-fluoro-N-[(3R)-3-piperidyl]-N-[2-(3-pyridyl)thieno[3,2-c]pyridin-4-yl]-4-(triazolo[4,5-b]pyridin-3-yl)benzamide], the IC50 worked out at 360 nM.
On to `Cc1cn(-c2ccc(C(=O)N(c3nccc4c(F)ccc(C)c34)[C@@H]3CCCNC3)c(F)c2)nn1` [Example 655, (R)-2-fluoro-N-(5-fluoro-8-methylisoquinolin-1-yl)-4-(4-methyl-1H-1,2,3-triazol-1-yl)-N-(piperidin-3-yl)benzamide], for which the IC50 came out at 84 nM.
With `Cc1nnc(-c2ccc(C(=O)N(c3nccc4cc(F)cc(C)c34)[C@@H]3CCCNC3)c(F)c2)s1` [Example 833, (R)-2-fluoro-N-(6-fluoro-8-methylisoquinolin-1-yl)-4-(5-methyl-1,3,4-thiadiazol-2-yl)-N-(piperidin-3-yl)benzamide], the IC50 is 120 nM.
As for `Cc1nnc(-c2ccc(C(=O)N(c3nccc4cc(Cl)cc(C)c34)[C@@H]3CCCNC3)c(F)c2)s1` [Example 815, (R)—N-(6-chloro-8-methylisoquinolin-1-yl)-2-fluoro-4-(5-methyl-1,3,4-thiadiazol-2-yl)-N-(piperidin-3-yl)benzamide], the IC50 turned out to be 69 nM.
The figure for `Cc1cccc2ccnc(N(C(=O)c3ccc(Nc4ncncn4)cc3F)[C@@H]3CCCNC3)c12` [Example 473, (R)-4-((1,3,5-triazin-2-yl)amino)-2-fluoro-N-(8-methylisoquinolin-1-yl)-N-(piperidin-3-yl)benzamide] is 300 nM.
For `Cc1cc(F)cc2ccnc(N(C(=O)c3ccc(-c4nnc(O)s4)cc3F)[C@@H]3CCCNC3)c12` [Example 650, 2-fluoro-N-(6-fluoro-8-methyl-1-isoquinolyl)-4-(5-hydroxy-1,3,4-thiadiazol-2-yl)-N-[(3R)-3-piperidyl]benzamide] the value was 3600 nM.
